Test results: EP0215357B1, “Pharmaceutical preparation for the treatment of hypertension” (HOECHST AKTIENGESELLSCHAFT, priority 1985, dated 1987)

System: spontan hypertensive Ratten (Wistar-Kyoto)
Experiment: Urine excretion over 5 hours in spontaneously hypertensive rats (metabolic cages)
Type: in vivo, Ratte
Settings: mean ± spread
Description: 10 spontan hypertensive Ratten (Wistar-Kyoto) wurden instrumentiert und während der Versuche in Stoffwechselkäfigen gehalten. Ramipril (=A) (1 mg/kg) und Piretanid (=B) (1,2 und 16 mg/kg) werden in Tylose oral mit Magensonde verabreicht. Die Kontrollgruppe erhielt nur Tylose. Die ausgeschiedene Urinmenge nach 5 Stunden, die Natriumausscheidung nach 5 Stunden sowie der arterielle Mitteldruck wurden bestimmt. Tabelle 1

| SMILES | Urinmenge (1 mg/kg oral in Tylose) [µ1/100g.5h] | Urinmenge (2 mg/kg oral in Tylose) [µ1/100g.5h] | Urinmenge (16 mg/kg oral in Tylose) [µ1/100g.5h] |
| --- | --- | --- | --- |
| CCOC(=O)[C@H](CCc1ccccc1)N[C@@H](C)C(=O)N1[C@H](C(=O)O)C[C@@H]2CCC[C@@H]21 [A, Ramipril] | 760±185 |  |  |
| NS(=O)(=O)c1cc(C(=O)O)cc(N2CCCC2)c1Oc1ccccc1 [B, Piretanid] | 900±180 | 1470±140 | 3520±405 |
